± gives the expanded uncertainty stated by the source.
Assay: xn = mol fraction of the nth substance listed
Details: Liquid, Vibrating tube method, x1 = 1

## Cc1ccccc1 [toluene] + CCC(=O)c1ccccc1
298.15 K, 100 kPa
  mass density: 862.1 ± 0.26 kg/m3
298.15 K, 2130 kPa
  mass density: 863.6 ± 0.27 kg/m3
298.15 K, 4150 kPa
  mass density: 865.2 ± 0.27 kg/m3
298.15 K, 6180 kPa
  mass density: 866.7 ± 0.27 kg/m3
298.15 K, 8210 kPa
  mass density: 868.2 ± 0.27 kg/m3
298.15 K, 10230 kPa
  mass density: 869.6 ± 0.28 kg/m3
298.15 K, 11250 kPa
  mass density: 870.4 ± 0.28 kg/m3
298.15 K, 12260 kPa
  mass density: 871.1 ± 0.28 kg/m3
298.15 K, 14290 kPa
  mass density: 872.5 ± 0.28 kg/m3
298.15 K, 16310 kPa
  mass density: 873.9 ± 0.29 kg/m3
298.15 K, 18340 kPa
  mass density: 875.3 ± 0.29 kg/m3
298.15 K, 20370 kPa
  mass density: 876.7 ± 0.29 kg/m3
298.15 K, 22390 kPa
  mass density: 878 ± 0.29 kg/m3
298.15 K, 24420 kPa
  mass density: 879.3 ± 0.3 kg/m3
298.15 K, 26450 kPa
  mass density: 880.6 ± 0.3 kg/m3
298.15 K, 28470 kPa
  mass density: 881.9 ± 0.31 kg/m3
298.15 K, 29490 kPa
  mass density: 882.5 ± 0.31 kg/m3
298.15 K, 30500 kPa
  mass density: 883.2 ± 0.31 kg/m3
298.15 K, 32530 kPa
  mass density: 884.4 ± 0.31 kg/m3
298.15 K, 34550 kPa
  mass density: 885.6 ± 0.32 kg/m3
298.15 K, 36580 kPa
  mass density: 886.8 ± 0.32 kg/m3
298.15 K, 38600 kPa
  mass density: 888 ± 0.32 kg/m3
298.15 K, 39620 kPa
  mass density: 888.6 ± 0.33 kg/m3
308.15 K, 100 kPa
  mass density: 853 ± 0.27 kg/m3
308.15 K, 2130 kPa
  mass density: 854.5 ± 0.27 kg/m3
308.15 K, 4150 kPa
  mass density: 856.2 ± 0.28 kg/m3
308.15 K, 6180 kPa
  mass density: 857.8 ± 0.28 kg/m3
308.15 K, 8210 kPa
  mass density: 859.3 ± 0.28 kg/m3
308.15 K, 10230 kPa
  mass density: 860.9 ± 0.29 kg/m3
308.15 K, 11250 kPa
  mass density: 861.7 ± 0.29 kg/m3
308.15 K, 12260 kPa
  mass density: 862.4 ± 0.29 kg/m3
308.15 K, 14290 kPa
  mass density: 863.9 ± 0.29 kg/m3
308.15 K, 16310 kPa
  mass density: 865.4 ± 0.29 kg/m3
308.15 K, 18340 kPa
  mass density: 866.8 ± 0.3 kg/m3
308.15 K, 20370 kPa
  mass density: 868.2 ± 0.3 kg/m3
308.15 K, 22390 kPa
  mass density: 869.6 ± 0.3 kg/m3
308.15 K, 24420 kPa
  mass density: 871 ± 0.31 kg/m3
308.15 K, 26450 kPa
  mass density: 872.4 ± 0.31 kg/m3
308.15 K, 28470 kPa
  mass density: 873.8 ± 0.32 kg/m3
308.15 K, 29490 kPa
  mass density: 874.4 ± 0.31 kg/m3
308.15 K, 30500 kPa
  mass density: 875 ± 0.32 kg/m3
308.15 K, 32530 kPa
  mass density: 876.3 ± 0.32 kg/m3
308.15 K, 34550 kPa
  mass density: 877.6 ± 0.33 kg/m3
308.15 K, 36580 kPa
  mass density: 878.9 ± 0.33 kg/m3
308.15 K, 38600 kPa
  mass density: 880.1 ± 0.33 kg/m3
308.15 K, 39620 kPa
  mass density: 880.7 ± 0.35 kg/m3
318.15 K, 100 kPa
  mass density: 843.8 ± 0.29 kg/m3
318.15 K, 2130 kPa
  mass density: 845.6 ± 0.28 kg/m3
318.15 K, 4150 kPa
  mass density: 847.3 ± 0.29 kg/m3
318.15 K, 6180 kPa
  mass density: 849 ± 0.29 kg/m3
318.15 K, 8210 kPa
  mass density: 850.6 ± 0.29 kg/m3
318.15 K, 10230 kPa
  mass density: 852.3 ± 0.29 kg/m3
318.15 K, 11250 kPa
  mass density: 853.1 ± 0.29 kg/m3
318.15 K, 12260 kPa
  mass density: 853.9 ± 0.29 kg/m3
318.15 K, 14290 kPa
  mass density: 855.4 ± 0.3 kg/m3
318.15 K, 16310 kPa
  mass density: 857 ± 0.3 kg/m3
318.15 K, 18340 kPa
  mass density: 858.5 ± 0.3 kg/m3
318.15 K, 20370 kPa
  mass density: 860 ± 0.31 kg/m3
318.15 K, 22390 kPa
  mass density: 861.5 ± 0.31 kg/m3
318.15 K, 24420 kPa
  mass density: 862.9 ± 0.32 kg/m3
318.15 K, 26450 kPa
  mass density: 864.4 ± 0.32 kg/m3
318.15 K, 28470 kPa
  mass density: 865.8 ± 0.33 kg/m3
318.15 K, 29490 kPa
  mass density: 866.5 ± 0.33 kg/m3
318.15 K, 30500 kPa
  mass density: 867.2 ± 0.33 kg/m3
318.15 K, 32530 kPa
  mass density: 868.5 ± 0.33 kg/m3
318.15 K, 34550 kPa
  mass density: 869.9 ± 0.34 kg/m3
318.15 K, 36580 kPa
  mass density: 871.2 ± 0.34 kg/m3
318.15 K, 38600 kPa
  mass density: 872.5 ± 0.35 kg/m3
318.15 K, 39620 kPa
  mass density: 873.2 ± 0.35 kg/m3
328.15 K, 100 kPa
  mass density: 834.5 ± 0.3 kg/m3
328.15 K, 2130 kPa
  mass density: 836.5 ± 0.29 kg/m3
328.15 K, 4150 kPa
  mass density: 838.3 ± 0.29 kg/m3
328.15 K, 6180 kPa
  mass density: 840.1 ± 0.29 kg/m3
328.15 K, 8210 kPa
  mass density: 841.8 ± 0.3 kg/m3
328.15 K, 10230 kPa
  mass density: 843.5 ± 0.3 kg/m3
328.15 K, 11250 kPa
  mass density: 844.4 ± 0.3 kg/m3
328.15 K, 12260 kPa
  mass density: 845.2 ± 0.3 kg/m3
328.15 K, 14290 kPa
  mass density: 846.9 ± 0.31 kg/m3
328.15 K, 16310 kPa
  mass density: 848.6 ± 0.31 kg/m3
328.15 K, 18340 kPa
  mass density: 850.1 ± 0.31 kg/m3
328.15 K, 20370 kPa
  mass density: 851.7 ± 0.32 kg/m3
328.15 K, 22390 kPa
  mass density: 853.3 ± 0.32 kg/m3
328.15 K, 24420 kPa
  mass density: 854.8 ± 0.33 kg/m3
328.15 K, 26450 kPa
  mass density: 856.3 ± 0.33 kg/m3
328.15 K, 28470 kPa
  mass density: 857.8 ± 0.34 kg/m3
328.15 K, 29490 kPa
  mass density: 858.5 ± 0.34 kg/m3
328.15 K, 30500 kPa
  mass density: 859.3 ± 0.34 kg/m3
328.15 K, 32530 kPa
  mass density: 860.7 ± 0.34 kg/m3
328.15 K, 34550 kPa
  mass density: 862.1 ± 0.35 kg/m3
328.15 K, 36580 kPa
  mass density: 863.5 ± 0.35 kg/m3
328.15 K, 38600 kPa
  mass density: 864.9 ± 0.36 kg/m3
328.15 K, 39620 kPa
  mass density: 865.5 ± 0.35 kg/m3

— the NIST ThermoML archive (doi:10.1016/j.jct.2004.10.011)
